This is an account of results in EP0997459A1, “Intermediates for preparing retroviral protease inhibiting compounds” (priority 1990, dated 1992).

The target of one series is HIV-1 protease (Human immunodeficiency virus type 1 group M subtype B, UniProt P04585). The experiment in a line: Fluorogenic assay for screening inhibitors of HIV protease. Format: biochemical. Particulars: read-out: Percent Inhibition. How it is done:
Fluorogenic Assay for Screening Inhibitors of HIV Protease
The inhibitory potency of the compounds of the invention can be determined by the following method.
A compound of the invention is dissolved in DMSO and a small aliquot further diluted with DMSO to 100 times the final concentration desired for testing. The reaction is carried out in a 6 X 50 mm tube in a total volume of 300 microliters. The final concentrations of the components in the reaction buffer are: 125 mM sodium acetate, 1 M sodium chloride, 5 mM dithiothreitol, 0.5 mg/ml bovine serum albumin, 1.3 µM fluorogenic substrate, 2% (v/v) dimethylsulfoxide, pH 4.5. After addition of inhibitor, the reaction mixture is placed in the fluorometer cell holder and incubated at 30°C for several minutes. The reaction is initiated by the addition of a small aliquot of cold HIV protease. The fluorescence intensity (excitation 340 nm, emmision 490 nM) is recorded as a function of time. The reaction rate is determined for the first six to eight minutes. The observed rate is directly proportional to the moles of substrate cleaved per unit time. The percent inhibition is 100 X (1 - (rate in presence of inhibitor)/(rate in absence of inhibitor)).

The subject of the next series is HIV-13B. Nature of the series: Antiviral activity: inhibition of the cytopathic effect of HIV in MT4 cells (procedure of Pauwels et al.). Type of series: cell-based. Particulars: Human immunodeficiency virus 1, MT4. An excerpt:
(§1) The anti-HIV activity of the compounds of the invention can be determined in MT4 cells according to the procedure of Pauwels et. al. (J. Virol. Methods 1988, 20, 309).

Series [1] can be described thus: Cell viability (LC50) in MT4 cells in the antiviral test. Type of series: cell-based. Particulars: human, concentration at which 50% of the cells remain viable.
Source text: as §1

Regarding `O=C(N[C@@H](Cc1ccccc1)C[C@H](O)[C@H](Cc1ccccc1)NC(=O)OCc1ccno1)OCc1ccno1` [Example 334B, (2S,3S,5S)-2,5-Bis-(N-(isoxazol-5-ylmethoxycarbonyl)amino)-1,6-diphenyl-3-hydroxyhexane], the inhibition (commonly how much of the control response was suppressed) at 0.001 µM on HIV-1 protease was 56%. Moreover, the IC50 (usually the concentration that gives 50% inhibition) in the series on HIV-13B fell in the range of 0.74 to 1.6 µM. Further, in series [1], it took 91 µM to reach half-maximal cytotoxicity (CC50).
